In patent publication US7482008B1, “Human T cell reactive feline protein (TRFP) isolated from house dust and uses therefor” (Merck Patent GmbH, priority 1989, dated 2009):
Values belong to the molecule of their own block, whether it stands above or below them.

What was measured:
IgE = IgE binding of dimeric recombinant chain 1 and alkali treated TRFP
T cell = T cell reactivity of dimeric recombinant chain 1 and alkali treated TRFP; type: cell-based
human IgE [1] = assay: SDS/PAGE Western immunoblot of human IgE binding, plasma from patient #417; conditions: patient #417 plasma
Experimental: Western immunoblot analysis of the peptides produced in above was performed. The concentration of all protein samples (e.g., TRFP, recombinant chain 1 of TRFP, recombinant chain 2 of TRFP, peptide XYZ, peptide XZY, peptide YXZ, peptide YZX, peptide ZXY and peptide ZYX) for gel electrophoresis was determined by the BCA method (Pierce Co.). All protein samples were loaded on the gel at 5 μg/lane except TRFP at 10 μg/lane. Protein separation was carried out on a 15% acrylamide gel, and transfer was performed by electroblotting at 1.5 Amps for 1.5 hours onto nitrocellulose paper (Schleicher and Schuell, 0.1 microns) in a Hoeffer apparatus according to the protocol of Towbin, H., T. Stachlin, and J. Gordon, PNAS 76:4350 (1979). Proteins were rinsed in blot solution (25 mM Tris-HCl 7.5, 0.171 M NaCl and 0.5 ml/liter Tween 20). The blot was then blocked for one hour in blocking solution (1% milk in blot solution). Plasma from patient #417, used as a primary antibody source, was diluted in blocking solution to 10% and preabsorbed for 1.5 hours with unused nitrocellulose (2 cm×15 cm). The prepared human plasma was then incubated overnight on an orbital shaker with the protein blot section of interest. Following the first antibody incubation the blot section was washed three times, each wash involved a fifteen minute incubation in blot solution. The second antibody, specific for human IgE (biotinylated goat anti-human IgE, KPL Inc.), was diluted 1:2500 in blot solution and the incubation proceeded for two hours. Excess second antibody was subsequently removed by three 15 minute incubations with blot solution. ^125I Iodinated streptavidin (Amersham) was diluted 1:2500 in blot solution and incubated with blots for 1 hour, at 2 μCi in a 50 ml incubation volume. Blot sections were then washed with blot solution until the detectable radioactivity in the waste solution decreased to background levels. The blot section was then wrapped in saran wrap and exposed to film overnight with a cronex intensifying screen at −80° C.

human IgE [2] = assay: ELISA of human IgE binding, plasma from patient #669; conditions: patient #669 plasma
Experimental: Corning assay plates (#25882-96) were coated with 10 μg/ml of each coating antigen (i.e., TRFP, chain 1 (recombinant chain 1 of TRFP), chain 2 (recombinant chain 2 of TRFP), peptide XYZ, peptide XZY, peptide YXZ, peptide YZX, peptide ZXY and peptide ZYX) listed in FIG. 34 at 50 μl/well and incubated overnight at 4° C. The coating antigens were removed and the wells were blocked with 0.5% gelatin in PBS, 200 μl/well for 2 hours at room temperature. Plasma from patient #669 was serially diluted with PBS-Tween 20 (PBS with 0.05% nonionic detergent Tween-20 Sigma, St. Louis Mo.) and 100 μl/well was added and incubated overnight at 4° C. (plasma dilutions are tested in duplicate). The second antibody (biotinylated goat anti-Human IgE, 1:1000, Kirkegaard & Perry Laboratories Inc. Gaithersburg, Md.), was added at 100 μl/well for one hour at room temperature. This solution was removed and streptavidin-HRPO, 1:10,000 (Southern Biotechnology Associates, Inc., Birmingham, Ala.) was then added at 100 μl/well for one hour at room temperature (all wells were washed three times with PBS-Tween between each incubation step). TMB Membrane Peroxidase Substrate system (Kirkegaard & Perry Laboratories) was freshly mixed, and added at 100 μl/well. The color was allowed to develop for 2-5 minutes. The reaction was stopped by the addition of 100 μl/well of 1M phosphoric acid. Plates were read on a Microplate EL 310 Autoreader (Biotek Instruments, Winooski, Vt.) with a 450 nm filter. The absorbance levels of duplicate wells were averaged.

IgE binding (IgE): markedly reduced IgE binding
Molecule: recombinant chain 1 of TRFP in a dimeric form: recombinant chain 1 of TRFP in a dimeric form
T cell reactivity (T cell): maintains T cell reactivity

IgE binding (IgE): markedly reduced IgE binding
Molecule: mild alkali treated TRFP: mild alkali treated TRFP
T cell reactivity (T cell): maintains T cell reactivity

IgE binding, ELISA (human IgE [2]): clear reactivity with IgE
B1: peptide ZXY: recombinant peptide: peptide Z, peptide X and peptide Y linked in this order (protein)
chain: MGHHHHHHEFFFAVANGNELLLDLSLTKVNATEPERKRDVDLFLTGTPDEYVEQVAQYKALPVVLENARILKNCVDAKMTEEDKE
IgE binding, Western immunoblot (human IgE [1]): show IgE binding
